Results from ChEMBL document CHEMBL5665443, “Enzyme Inhibitor Single Concentration assay results for EUbOPEN Chemogenomics Library” (2024).

Columns and labels:
[1] = target: Methyl-CpG-binding domain protein 4 (Homo sapiens) (UniProt O95243); conditions: Hit No;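 note: MBD4 activity read as fluorescence at 594 nm from cleavage and release of a quenched duplex DNA oligonucleotide, with APE1 coupled to incise the strand and raise turnover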
Description: Inhibition of MBD4 by quantifying inhibition of MBD4-mediated cleavage and dissociation of quenched duplex DNA oligonucleotides, measured as fluorescence at 594 nm. To generate a functional strand incision and increase turn-over this assay is coupled to APE1.

[2] = target: T1, Adenine DNA glycosylase (Homo sapiens) (UniProt Q9UIF7); conditions: Hit No;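 note: human MUTYH activity read as 594 nm fluorescence from cleavage and release of a quenched DNA duplex, coupled with APE1 for strand incision, lower signal meaning inhibition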
T1 sequence (whole entry): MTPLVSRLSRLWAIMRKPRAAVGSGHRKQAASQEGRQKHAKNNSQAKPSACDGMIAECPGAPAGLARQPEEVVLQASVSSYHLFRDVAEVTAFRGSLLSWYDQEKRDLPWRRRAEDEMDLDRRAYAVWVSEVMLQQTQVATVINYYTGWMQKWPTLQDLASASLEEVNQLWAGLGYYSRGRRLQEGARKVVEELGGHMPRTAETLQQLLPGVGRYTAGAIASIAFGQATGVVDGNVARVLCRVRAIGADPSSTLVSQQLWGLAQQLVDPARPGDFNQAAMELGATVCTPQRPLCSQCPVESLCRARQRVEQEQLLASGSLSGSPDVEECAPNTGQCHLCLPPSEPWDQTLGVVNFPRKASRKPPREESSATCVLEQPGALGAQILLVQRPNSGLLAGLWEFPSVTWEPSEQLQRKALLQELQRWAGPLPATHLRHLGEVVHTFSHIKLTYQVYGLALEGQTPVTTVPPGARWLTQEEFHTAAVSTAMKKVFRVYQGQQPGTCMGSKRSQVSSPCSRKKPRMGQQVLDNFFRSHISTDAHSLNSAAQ
Description: Inhibition of MUTYH by quantifying inhibition of MUTYH-mediated cleavage and dissociation of quenched duplex DNA oligonucleotides, measured as fluorescence at 594 nm. To generate a functional strand incision and increase turn-over this assay is coupled to APE1.

[3] = target: Endonuclease 8-like 1 (Homo sapiens) (UniProt Q96FI4); conditions: Hit No;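 note: fluorescence at 594 nm from quenched duplex DNA oligonucleotides released by NEIL1 cleavage and strand separation, reported as reduction of this enzyme activity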
Description: Inhibition of NEIL1 by quantifying inhibition of NEIL1-mediated cleavage and dissociation of quenched duplex DNA oligonucleotides, measured as fluorescence at 594 nm.

[4] = target: T2, Endonuclease 8-like 2 (Homo sapiens) (UniProt Q969S2); conditions: Hit No;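 note: fluorescence at 594 nm reports NEIL2 cutting and release of a quenched double-stranded DNA oligo substrate, reduced signal read as inhibition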
T2 sequence (whole entry): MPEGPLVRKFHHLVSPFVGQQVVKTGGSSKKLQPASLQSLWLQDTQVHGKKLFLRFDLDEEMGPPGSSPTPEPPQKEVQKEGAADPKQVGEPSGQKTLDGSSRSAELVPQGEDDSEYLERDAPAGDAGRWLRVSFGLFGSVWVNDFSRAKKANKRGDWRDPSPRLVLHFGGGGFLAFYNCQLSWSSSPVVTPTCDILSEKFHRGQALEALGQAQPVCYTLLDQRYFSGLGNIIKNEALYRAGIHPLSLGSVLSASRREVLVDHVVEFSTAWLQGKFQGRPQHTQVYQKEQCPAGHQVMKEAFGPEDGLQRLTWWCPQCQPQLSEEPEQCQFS
Description: Inhibition of NEIL2 by quantifying inhibition of NEIL2-mediated cleavage and dissociation of quenched duplex DNA oligonucleotides, measured as fluorescence at 594 nm.

[5] = target: T3, Endonuclease III-like protein 1 (Homo sapiens) (UniProt P78549); conditions: Hit No;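 note: enzyme assay tracking NTHL1 cutting and release of a quenched double-stranded DNA oligo substrate, read as fluorescence at 594 nm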
T3 sequence (whole entry): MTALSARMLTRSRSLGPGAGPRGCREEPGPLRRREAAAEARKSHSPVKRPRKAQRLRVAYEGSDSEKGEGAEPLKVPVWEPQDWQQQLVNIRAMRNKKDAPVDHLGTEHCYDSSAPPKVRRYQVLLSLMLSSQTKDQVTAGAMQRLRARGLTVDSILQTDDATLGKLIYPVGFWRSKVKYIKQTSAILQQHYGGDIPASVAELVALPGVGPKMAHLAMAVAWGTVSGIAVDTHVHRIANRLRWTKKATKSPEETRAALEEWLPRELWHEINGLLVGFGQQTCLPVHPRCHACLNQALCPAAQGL
Description: Inhibition of NTHL1 by quantifying inhibition of NTHL1-mediated cleavage and dissociation of quenched duplex DNA oligonucleotides, measured as fluorescence at 594 nm.

[6] = target: N-glycosylase/DNA lyase (Homo sapiens) (UniProt O15527);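 note: OGG1 cleavage of a quenched duplex DNA oligonucleotide, coupled to APE1 for strand incision, read as fluorescence at 594 nm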
Description: Inhibition of OGG1 by quantifying inhibition of OGG1-mediated cleavage and dissociation of quenched duplex DNA oligonucleotides, measured as fluorescence at 594 nm. To generate a functional strand incision and increase turn-over this assay is coupled to APE1.

[7] = target: T4, Single-strand selective monofunctional uracil DNA glycosylase (Homo sapiens) (UniProt Q53HV7); conditions: Hit No;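 note: enzymatic SMUG1 assay coupled with APE1, reading fluorescence at 594 nm released when a quenched double-stranded DNA oligonucleotide substrate is cleaved and separated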
T4 sequence (whole entry): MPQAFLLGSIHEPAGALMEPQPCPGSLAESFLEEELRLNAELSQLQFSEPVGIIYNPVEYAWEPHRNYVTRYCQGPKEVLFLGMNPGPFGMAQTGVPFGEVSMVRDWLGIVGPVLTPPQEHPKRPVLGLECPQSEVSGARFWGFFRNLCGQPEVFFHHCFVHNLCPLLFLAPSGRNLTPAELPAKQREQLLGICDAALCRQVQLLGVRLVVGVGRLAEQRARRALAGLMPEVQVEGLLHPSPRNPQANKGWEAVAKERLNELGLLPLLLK
Description: Inhibition of SMUG1 by quantifying inhibition of SMUG1-mediated cleavage and dissociation of quenched duplex DNA oligonucleotides, measured as fluorescence at 594 nm. To generate a functional strand incision and increase turn-over this assay is coupled to APE1.

[8] = target: G/T mismatch-specific thymine DNA glycosylase (Homo sapiens) (UniProt Q13569); conditions: Hit No;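 note: human TDG cleavage of quenched duplex DNA oligonucleotides coupled to APE1, strand release read as fluorescence at 594 nm, inhibition of TDG activity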
Description: Inhibition of TDG by quantifying inhibition of TDG-mediated cleavage and dissociation of quenched duplex DNA oligonucleotides, measured as fluorescence at 594 nm. To generate a functional strand incision and increase turn-over this assay is coupled to APE1.

[9] = target: Uracil-DNA glycosylase (Homo sapiens) (UniProt P13051); conditions: Hit No;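 note: UNG excision on a quenched double-stranded DNA oligo probe, with APE1 added for strand incision and turnover, read as fluorescence at 594 nm as strands separate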
Description: Inhibition of UNG by quantifying inhibition of UNG-mediated cleavage and dissociation of quenched duplex DNA oligonucleotides, measured as fluorescence at 594 nm. To generate a functional strand incision and increase turn-over this assay is coupled to APE1.

[10] = Compound Concentration 1.0 uM, Hit No
[11] = Compound Concentration 10.0 uM, Hit No

Endonuclease 8-like 1 (Homo sapiens), sequence (Q96FI4 whole entry): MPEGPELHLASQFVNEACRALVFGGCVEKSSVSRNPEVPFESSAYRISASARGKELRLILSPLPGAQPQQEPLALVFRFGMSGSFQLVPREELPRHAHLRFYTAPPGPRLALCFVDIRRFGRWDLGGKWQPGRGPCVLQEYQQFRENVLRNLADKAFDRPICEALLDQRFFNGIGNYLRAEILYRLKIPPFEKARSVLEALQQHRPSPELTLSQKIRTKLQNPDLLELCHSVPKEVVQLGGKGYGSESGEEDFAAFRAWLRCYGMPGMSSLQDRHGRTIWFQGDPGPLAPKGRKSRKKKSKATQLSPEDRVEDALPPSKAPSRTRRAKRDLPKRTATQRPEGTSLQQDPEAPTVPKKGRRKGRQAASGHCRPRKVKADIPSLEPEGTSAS
Uracil-DNA glycosylase (Homo sapiens), sequence (P13051 whole entry): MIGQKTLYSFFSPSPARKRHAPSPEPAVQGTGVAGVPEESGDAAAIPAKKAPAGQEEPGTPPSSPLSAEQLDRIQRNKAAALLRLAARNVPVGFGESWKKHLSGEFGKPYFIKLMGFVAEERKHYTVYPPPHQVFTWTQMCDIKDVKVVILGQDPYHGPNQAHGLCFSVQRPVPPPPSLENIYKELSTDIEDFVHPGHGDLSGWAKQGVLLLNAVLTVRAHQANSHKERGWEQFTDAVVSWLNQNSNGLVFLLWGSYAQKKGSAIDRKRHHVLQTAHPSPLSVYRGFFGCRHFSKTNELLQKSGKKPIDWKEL
Methyl-CpG-binding domain protein 4 (Homo sapiens), sequence (O95243 whole entry, the tested form may be a part): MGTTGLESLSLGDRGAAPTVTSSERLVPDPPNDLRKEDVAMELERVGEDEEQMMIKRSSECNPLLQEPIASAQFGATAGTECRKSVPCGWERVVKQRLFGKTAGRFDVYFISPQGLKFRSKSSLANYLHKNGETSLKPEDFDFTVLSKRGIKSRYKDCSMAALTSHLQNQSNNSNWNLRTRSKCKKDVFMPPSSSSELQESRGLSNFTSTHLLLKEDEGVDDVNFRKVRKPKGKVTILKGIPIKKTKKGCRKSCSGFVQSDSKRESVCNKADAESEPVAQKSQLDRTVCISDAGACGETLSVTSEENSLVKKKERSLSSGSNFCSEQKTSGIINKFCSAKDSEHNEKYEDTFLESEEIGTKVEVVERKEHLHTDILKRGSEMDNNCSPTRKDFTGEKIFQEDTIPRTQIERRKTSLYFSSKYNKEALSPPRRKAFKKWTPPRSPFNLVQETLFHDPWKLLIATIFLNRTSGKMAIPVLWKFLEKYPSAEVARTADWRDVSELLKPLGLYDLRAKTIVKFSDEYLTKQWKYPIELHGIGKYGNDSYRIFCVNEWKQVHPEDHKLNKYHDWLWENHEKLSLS
N-glycosylase/DNA lyase (Homo sapiens), sequence (O15527 whole entry): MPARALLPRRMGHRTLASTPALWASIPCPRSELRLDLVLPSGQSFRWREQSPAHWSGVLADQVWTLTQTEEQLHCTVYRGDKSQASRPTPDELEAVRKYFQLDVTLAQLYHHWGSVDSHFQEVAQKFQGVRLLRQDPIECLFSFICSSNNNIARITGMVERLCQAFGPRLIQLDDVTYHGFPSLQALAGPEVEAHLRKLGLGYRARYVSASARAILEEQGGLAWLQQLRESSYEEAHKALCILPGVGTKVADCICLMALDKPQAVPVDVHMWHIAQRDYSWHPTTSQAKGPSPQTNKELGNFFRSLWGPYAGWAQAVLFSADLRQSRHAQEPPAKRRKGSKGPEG
G/T mismatch-specific thymine DNA glycosylase (Homo sapiens), sequence (Q13569 whole entry): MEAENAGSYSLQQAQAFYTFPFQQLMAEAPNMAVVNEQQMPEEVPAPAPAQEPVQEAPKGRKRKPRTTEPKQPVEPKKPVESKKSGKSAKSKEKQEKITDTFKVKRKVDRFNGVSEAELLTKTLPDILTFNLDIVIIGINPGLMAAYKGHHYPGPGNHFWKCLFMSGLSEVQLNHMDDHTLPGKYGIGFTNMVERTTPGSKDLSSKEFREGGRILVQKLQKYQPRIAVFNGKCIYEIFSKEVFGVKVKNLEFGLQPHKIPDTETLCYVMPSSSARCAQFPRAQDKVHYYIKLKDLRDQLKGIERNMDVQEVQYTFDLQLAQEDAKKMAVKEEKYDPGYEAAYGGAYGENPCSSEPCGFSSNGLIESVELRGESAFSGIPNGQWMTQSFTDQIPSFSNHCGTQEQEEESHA

SMILES | inhibition ([1]; Compound Concentration 1.0 uM) [%] | inhibition ([2]; Compound Concentration 1.0 uM) [%] | inhibition ([3]; Compound Concentration 1.0 uM) [%] | inhibition ([4]; Compound Concentration 1.0 uM) [%] | inhibition ([5]; Compound Concentration 1.0 uM) [%] | inhibition [6, 10] [%] | inhibition ([7]; Compound Concentration 1.0 uM) [%] | inhibition ([8]; Compound Concentration 1.0 uM) [%] | inhibition ([9]; Compound Concentration 1.0 uM) [%] | inhibition ([1]; Compound Concentration 10.0 uM) [%] | inhibition ([2]; Compound Concentration 10.0 uM) [%] | inhibition ([3]; Compound Concentration 10.0 uM) [%] | inhibition ([4]; Compound Concentration 10.0 uM) [%] | inhibition ([5]; Compound Concentration 10.0 uM) [%] | inhibition [6, 11] [%] | inhibition ([7]; Compound Concentration 10.0 uM) [%] | inhibition ([8]; Compound Concentration 10.0 uM) [%] | inhibition ([9]; Compound Concentration 10.0 uM) [%] | inhibition ([6]; Compound Concentration 10.0 uM, Hit Yes) [%]
Cc1ccc(C(=O)Nc2cccc(C(F)(F)F)c2)cc1Nc1nc(-c2cccnc2)nc2c1cnn2C | 14.1 | 7.35 | 6.48 | 3.74 | 0.785 | 5.38 | 23.8 | 48.5 | 6.36 |  |  |  |  |  |  |  |  |  | 
CCC[C@@H]1CNCc2c1[nH]c(=O)c(C#N)c2N1CCC2(CC1)CC2 |  |  |  |  |  |  |  |  |  | 65.3 | 7.93 | -1.35 | -5.59 | -9.18 | 27.9 | 17.4 | 98.8 | 2.58 | 
CC[C@@H](Nc1c(C#N)c(-c2ccc(-c3cccc(C)c3F)cc2)nc2cnccc12)C(=O)O |  |  |  |  |  |  |  |  |  | 42.6 | 24.5 | -1.4 | 3.25 | 2.05 | 31.6 | 12.3 | 49.5 | 2.5 | 
Cc1oc2ccccc2c1Cc1cc(I)c(OCC(=O)O)c(I)c1 |  |  |  |  |  |  |  |  |  | 67.1 | 29.3 | 0.619 | 3.34 | 17.8 |  | 47.4 | 98.9 | 6.35 | 91.8
COc1ccccc1-c1cc(Nc2cccc(CS(N)(=O)=O)c2)ncn1 |  |  |  |  |  |  |  |  |  | -4.72 | 4.56 | -4.75 | 4 | 7.06 | 3.23 | 19.3 | 35.8 | 3.59 | 
CCC(=O)N1CCN(c2ccc(-n3c(=O)ccc4cnc5ccc(-c6cnc7ccccc7c6)cc5c43)cc2C(F)(F)F)CC1 | -7.49 | 15.3 | -7.39 | -7.57 | 6.36 | 10.6 | 24.3 | 59 | 3.95 |  |  |  |  |  |  |  |  |  | 
COc1cccc(-c2nccc3c2CN(c2ccccc2)C3=O)c1 | 63.1 | -4.69 | -3.77 | 7.16 | 4.63 | 5.54 | 17.8 | 45.5 | 3.9 |  |  |  |  |  |  |  |  |  | 
C[C@@]1(Cc2ccc(C#N)cc2)C(=O)N(c2cc(Cl)cc(Cl)c2)c2ncc(C(=O)NC3(c4nc(C5CCC5)no4)CC3)n21 |  |  |  |  |  |  |  |  |  | 57.2 | -3.98 | -6.2 | -9.93 | -5.89 | 13.1 | 14.7 | 98.8 | 3.21 | 
CC(C)c1cc(Oc2c(Cl)cc(-n3nc(C#N)c(=O)[nH]c3=O)cc2Cl)n[nH]c1=O |  |  |  |  |  |  |  |  |  | 53.3 | 14 | -7.26 | 7.67 | 7.26 | 28.8 | 5.92 | 50.8 | -0.0293 | 
CN(C)[C@@H]1CCN(c2cc(-c3ccccc3)nc3ccnn23)C1 |  |  |  |  |  |  |  |  |  | 79.8 | 10.5 | 4.86 | 22.2 | -6.55 | 7.46 | 16.1 | 46.8 | 7.63 | 
CC(C)C(=O)N1CCC(c2cn(C)c3ncc(NC(=O)c4cccc(C#N)c4)c(C(F)(F)F)c23)CC1 |  |  |  |  |  |  |  |  |  | 55.2 | 7.16 |  | -3.04 | 9.89 | 7.16 | 26.5 | 58.4 | 5.34 | 
CN(C)C(=O)/C(C#N)=C/c1ccc(-c2nc3cnc4[nH]ccc4c3n2C2CCCCC2)o1 | 2.33 | -2.18 |  | -0.572 | -5.49 | 10.1 | 29.1 | 70.6 | 8.33 |  |  |  |  |  |  |  |  |  | 
CC(=O)N1CCC(c2ccc(C(=O)NC(=N)N)cc2C(F)(F)F)CC1 |  |  |  |  |  |  |  |  |  | 58.8 | 0.114 |  | -0.744 | 5.94 | 3.38 | 16.4 | 47.6 | 3.89 | 
Cc1c(NC(=O)COc2ccc(Cl)cc2C(=O)c2cc(F)cc(C(F)(F)F)c2)ccc(C(=O)O)c1F |  |  |  |  |  |  |  |  |  | 59.6 | 7.33 |  | 17.9 | -8.52 | 35.9 | 10.3 | 58.6 | 4.37 | 
O=C(c1ccc2c(ccn2-c2ccc(F)cc2)c1)N1CC(N2CCN(C(=O)c3nccs3)CC2)C1 |  |  |  |  |  |  |  |  |  | 63.5 | -6.82 |  | -1.76 | -0.63 | 5 | 21.1 | 45.8 | 7.11 | 
O=C(O)[C@H]1[C@H](Cn2nnc3ccccc3c2=O)CC[C@@H]1C(=O)c1ccc(OCCC2CCOCC2)cc1 | 58.9 | 7.33 |  | -9.93 | 2 | 2.93 | 17 | 51.4 | -2.04 |  |  |  |  |  |  |  |  |  | 
